Results published in patent publication US20240158446A1, “CYCLIC COMPOUND HAVING SELECTIVE INHIBITORY ACTION ON KRAS OVER HRAS AND NRAS” (CHUGAI SEIYAKU KABUSHIKI KAISHA, priority 2021, published 2024).

What was measured:
[1] = target: GDP-bound HRAS wild-type protein (Homo sapiens, UniProt P01112); test: Binding to HRAS by surface plasmon resonance (SPR), Single Cycle Kinetics; details: SPR KD ratio HRAS/KRAS, class symbols
[2] = target: GDP-bound KRAS wild-type protein (Homo sapiens, UniProt P01116); test: Binding to KRAS by surface plasmon resonance (SPR), Single Cycle Kinetics; details: SPR Single Cycle Kinetics, GDP-bound KRAS wild-type protein, 1:1 binding model; read-out: KRAS KD
[3] = target: GDP-bound NRAS wild-type protein (Homo sapiens, UniProt P01111); test: Binding to NRAS by surface plasmon resonance (SPR), Single Cycle Kinetics; details: SPR KD ratio NRAS/KRAS, class symbols
Sequence of GDP-bound NRAS wild-type protein (P01111 whole entry): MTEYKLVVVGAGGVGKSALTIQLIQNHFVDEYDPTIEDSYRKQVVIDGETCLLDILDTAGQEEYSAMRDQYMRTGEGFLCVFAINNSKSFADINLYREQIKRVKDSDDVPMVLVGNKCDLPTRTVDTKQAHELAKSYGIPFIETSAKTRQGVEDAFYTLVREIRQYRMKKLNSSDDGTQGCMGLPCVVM

Sequence of GDP-bound KRAS wild-type protein (P01116 whole entry): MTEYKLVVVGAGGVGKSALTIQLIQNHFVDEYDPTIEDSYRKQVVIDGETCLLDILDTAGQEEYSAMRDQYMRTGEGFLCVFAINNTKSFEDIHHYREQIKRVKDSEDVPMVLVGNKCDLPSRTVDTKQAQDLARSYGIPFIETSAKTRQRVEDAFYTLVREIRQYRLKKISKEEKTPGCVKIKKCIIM
Sequence of GDP-bound HRAS wild-type protein (P01112 whole entry): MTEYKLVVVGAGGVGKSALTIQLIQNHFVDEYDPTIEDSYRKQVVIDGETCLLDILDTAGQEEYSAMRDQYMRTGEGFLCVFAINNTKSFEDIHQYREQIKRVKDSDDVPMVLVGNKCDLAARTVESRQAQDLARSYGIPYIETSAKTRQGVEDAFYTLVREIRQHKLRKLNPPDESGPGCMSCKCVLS

Row | Structure (SMILES) | Kd [2] | HRAS/KRAS (ratio of KD value with respect to GDP-bound HRAS wild-type protein to KD value with respect to KRAS) [1] | NRAS/KRAS (ratio of KD value with respect to GDP-bound NRAS wild-type protein to KD value with respect to KRAS) [3]
1 | CCO[C@@H]1C[C@H]2C(=O)NC3(CC(C)(C)C3)C(=O)N(C)[C@@H](C3CCCC3)C(=O)N(C)[C@H](C(=O)N(C)CC)CC(=O)N(C)[C@@H](COC)C(=O)N[C@@H]([C@@H](C)CC)C(=O)N(C)CC(=O)N(C)[C@H]3C/C=C\CCN(C3=O)[C@@H](Cc3ccc(C(F)(F)F)cc3)C(=O)N(C)CC(=O)N[C@@H](CCc3ccc(Cl)c(Cl)c3)C(=O)N2C1 [PP2835] | 0.19 nM | A (a compound having 10 or more and less than 20 is denoted as A) | A (a compound having 10 or more and less than 20 is denoted as A)
2 | CCO[C@@H]1C[C@H]2C(=O)NC3(CCCC3)C(=O)N(C)[C@@H](C3CCCC3)C(=O)N(C)[C@H](C(=O)N(C)C)CC(=O)N(C)[C@@H](CC(C)C)C(=O)N[C@@H]([C@@H](C)CC)C(=O)N(C)CC(=O)N(C)[C@H]3C/C=C\CCN(C3=O)[C@@H](Cc3ccc(C(F)(F)F)cc3)C(=O)N(C)CC(=O)N[C@@H](CCc3ccc(Cl)c(Cl)c3)C(=O)N2C1 [PP2837] | 0.21 nM | A (a compound having 10 or more and less than 20 is denoted as A) | AA (a compound having 20 or more is denoted as AA)
3 | CCCC[C@H]1C(=O)N[C@@H]([C@@H](C)CC)C(=O)N(C)CC(=O)N(C)[C@H]2C/C=C\CCN(C2=O)[C@@H](Cc2ccc(C(F)(F)F)cc2)C(=O)N(C)CC(=O)N[C@@H](CCc2ccc(C(F)(F)F)c(OC)c2)C(=O)N2C[C@H](OCC)C[C@H]2C(=O)NC2(CCC2)C(=O)N(C)[C@@H](C2CCCC2)C(=O)N(C)[C@H](C(=O)N(C)CC)CC(=O)N1C [PP2840] | 0.1 nM | A (a compound having 10 or more and less than 20 is denoted as A) | A (a compound having 10 or more and less than 20 is denoted as A)
4 | C#CC[C@H]1C(=O)N[C@@H]([C@@H](C)CC)C(=O)N(C)CC(=O)N(C)[C@H]2C/C=C\CCN(C2=O)[C@@H](Cc2ccc(C(F)(F)F)cc2)C(=O)N(C)CC(=O)N[C@@H](CCc2ccc(Cl)c(Cl)c2)C(=O)N2C[C@H](OCC)C[C@H]2C(=O)NC2(CC(C)(C)C2)C(=O)N(C)[C@@H](C2CCCC2)C(=O)N(C)[C@H](C(=O)N(C)CC)CC(=O)N1C [PP2843] | 0.26 nM | A (a compound having 10 or more and less than 20 is denoted as A) | A (a compound having 10 or more and less than 20 is denoted as A)
5 | C#CC[C@H]1C(=O)N[C@@H]([C@@H](C)CC)C(=O)N(C)CC(=O)N(C)[C@H]2C/C=C\CCN(C2=O)[C@@H](Cc2ccc(C(F)(F)F)cc2)C(=O)N(C)CC(=O)N[C@@H](CCc2ccc(C(F)(F)F)c(Cl)c2)C(=O)N2C[C@H](OCC)C[C@H]2C(=O)NC2(CC(C)(C)C2)C(=O)N(C)[C@@H](C2CCCC2)C(=O)N(C)[C@H](C(=O)N(C)CC)CC(=O)N1C [PP2844] | 0.12 nM | A (a compound having 10 or more and less than 20 is denoted as A) | A (a compound having 10 or more and less than 20 is denoted as A)
6 | CCC[C@H]1C(=O)N[C@@H]([C@@H](C)CC)C(=O)N(C)CC(=O)N(C)[C@H]2C/C=C\CCN(C2=O)[C@@H](Cc2ccc(C(F)(F)F)cc2)C(=O)N(C)CC(=O)N[C@@H](CCc2ccc(CC)c(Cl)c2)C(=O)N2C[C@H](OCC)C[C@H]2C(=O)NC2(CC(C)(C)C2)C(=O)N(C)[C@@H](C2CCCC2)C(=O)N(C)[C@H](C(=O)N(C)C)CC(=O)N1C [PP2848] | 0.47 nM | A (a compound having 10 or more and less than 20 is denoted as A) | A (a compound having 10 or more and less than 20 is denoted as A)
7 | CCC[C@H]1C(=O)N[C@@H]([C@@H](C)CC)C(=O)N(C)CC(=O)N(C)[C@H]2C/C=C\CCN(C2=O)[C@@H](Cc2ccc(C(F)(F)F)cc2)C(=O)N(C)CC(=O)N[C@@H](CCc2cc(F)c3c(c2)CCC3)C(=O)N2C[C@H](OCC)C[C@H]2C(=O)NC2(CC(C)(C)C2)C(=O)N(C)[C@@H](C2CCCC2)C(=O)N(C)[C@H](C(=O)N(C)C)CC(=O)N1C [PP2849] | 0.58 nM | A (a compound having 10 or more and less than 20 is denoted as A) | A (a compound having 10 or more and less than 20 is denoted as A)
8 | CCC[C@H]1C(=O)N[C@@H]([C@@H](C)CC)C(=O)N(C)CC(=O)N(C)[C@H]2C/C=C\CCN(C2=O)[C@@H](Cc2ccc(C(F)(F)F)cc2)C(=O)N(C)CC(=O)N[C@@H](CCc2cc(Cl)c3sccc3c2)C(=O)N2C[C@H](OCC)C[C@H]2C(=O)NC2(CC(C)(C)C2)C(=O)N(C)[C@@H](C(CC)CC)C(=O)N(C)[C@H](C(=O)N(C)C)CC(=O)N1C [PP2888] | 0.39 nM | A (a compound having 10 or more and less than 20 is denoted as A) | AA (a compound having 20 or more is denoted as AA)
9 | CCC[C@H]1C(=O)N[C@@H]([C@@H](C)CC)C(=O)N(C)CC(=O)N(C)[C@H]2C/C=C\CCN(C2=O)[C@@H](Cc2ccc(C(F)(F)F)cc2)C(=O)N(C)CC(=O)N[C@@H](CCc2ccc3sc(C)c(C)c3c2)C(=O)N2C[C@H](OCC)C[C@H]2C(=O)NC2(CC(C)(C)C2)C(=O)N(C)[C@@H](C2CCCC2)C(=O)N(C)[C@H](C(=O)N(C)C)CC(=O)N1C [PP2889] | 0.29 nM | A (a compound having 10 or more and less than 20 is denoted as A) | A (a compound having 10 or more and less than 20 is denoted as A)
10 | CCC[C@H]1C(=O)N[C@@H]([C@@H](C)CC)C(=O)N(C)CC(=O)N(C)[C@H]2C/C=C\CCN(C2=O)[C@@H](Cc2ccc(C)cc2)C(=O)N(C)CC(=O)N[C@@H](CCc2cc(Cl)c3sccc3c2)C(=O)N2C[C@H](OCC)C[C@H]2C(=O)NC2(CC(C)(C)C2)C(=O)N(C)[C@@H](C(CC)CC)C(=O)N(C)[C@H](C(=O)N(C)C)CC(=O)N1C [PP2890] | 0.42 nM | A (a compound having 10 or more and less than 20 is denoted as A) | AA (a compound having 20 or more is denoted as AA)

Molecules with a lower Kd [2], results first:

Row | Kd [2] | Structure (SMILES) | HRAS/KRAS (ratio of KD value with respect to GDP-bound HRAS wild-type protein to KD value with respect to KRAS) [1] | NRAS/KRAS (ratio of KD value with respect to GDP-bound NRAS wild-type protein to KD value with respect to KRAS) [3]
11 | 0.052 nM | CCO[C@@H]1C[C@H]2C(=O)NC3(CC(C)(C)C3)C(=O)N(C)[C@@H](C3CCCC3)C(=O)N(C)[C@H](C(=O)N(C)C)CC(=O)N(C)[C@@H](CC(F)(F)F)C(=O)N[C@@H]([C@@H](C)CC)C(=O)N(C)CC(=O)N(C)[C@H]3C/C=C\CCN(C3=O)[C@@H](Cc3ccc(C(F)(F)F)cc3)C(=O)N(C)CC(=O)N[C@@H](CCc3ccc(C(F)(F)F)c(Cl)c3)C(=O)N2C1 [PP2833] | A (a compound having 10 or more and less than 20 is denoted as A) | A (a compound having 10 or more and less than 20 is denoted as A)
12 | 0.065 nM | CCO[C@@H]1C[C@H]2C(=O)NC3(CC(C)(C)C3)C(=O)N(C)[C@@H](C3CCCC3)C(=O)N(C)[C@H](C(=O)N(C)CC)CC(=O)N(C)[C@@H](COC)C(=O)N[C@@H]([C@@H](C)CC)C(=O)N(C)CC(=O)N(C)[C@H]3C/C=C\CCN(C3=O)[C@@H](Cc3ccc(C(F)(F)F)cc3)C(=O)N(C)CC(=O)N[C@@H](CCc3ccc(C(F)(F)F)c(Cl)c3)C(=O)N2C1 [PP2836] | A (a compound having 10 or more and less than 20 is denoted as A) | A (a compound having 10 or more and less than 20 is denoted as A)
13 | 0.066 nM | CCO[C@@H]1C[C@H]2C(=O)NC3(CCCC3)C(=O)N(C)[C@@H](C3CCCC3)C(=O)N(C)[C@H](C(=O)N(C)C)CC(=O)N(C)[C@@H](CC(C)C)C(=O)N[C@@H]([C@@H](C)CC)C(=O)N(C)CC(=O)N(C)[C@H]3C/C=C\CCN(C3=O)[C@@H](Cc3ccc(C(F)(F)F)cc3)C(=O)N(C)CC(=O)N[C@@H](CCc3ccc(C(F)(F)F)c(Cl)c3)C(=O)N2C1 [PP2838] | A (a compound having 10 or more and less than 20 is denoted as A) | AA (a compound having 20 or more is denoted as AA)
14 | 0.08 nM | CCO[C@@H]1C[C@H]2C(=O)NC3(CCC3)C(=O)N(C)[C@@H](C3CCCC3)C(=O)N(C)[C@H](C(=O)N(C)C)CC(=O)N(C)[C@@H](CC3CCCC3)C(=O)N[C@@H]([C@@H](C)CC)C(=O)N(C)CC(=O)N(C)[C@H]3C/C=C\CCN(C3=O)[C@@H](Cc3ccc(C(F)(F)F)cc3)C(=O)N(C)CC(=O)N[C@@H](CCc3ccc(C(F)(F)F)c(Cl)c3)C(=O)N2C1 [PP2842] | B (a compound having 3 or more and less than 10 is denoted as B) | A (a compound having 10 or more and less than 20 is denoted as A)
15 | 0.091 nM | CCO[C@@H]1C[C@H]2C(=O)NC3(CCC3)C(=O)N(C)[C@@H](C3CCCC3)C(=O)N(C)[C@H](C(=O)N(C)CC)CC(=O)N(C)[C@@H](CC(C)C)C(=O)N[C@@H]([C@@H](C)CC)C(=O)N(C)CC(=O)N(C)[C@H]3C/C=C\CCN(C3=O)[C@@H](Cc3ccc(C(F)(F)F)cc3)C(=O)N(C)CC(=O)N[C@@H](CCc3ccc(C(F)(F)F)c(OC)c3)C(=O)N2C1 [PP2846] | A (a compound having 10 or more and less than 20 is denoted as A) | AA (a compound having 20 or more is denoted as AA)
